The values below are quoted from earlier work in US20230019058A1, “METHOD FOR THE TREATMENT OF VIRAL INFECTIONS” (Softhale NV, priority 2020, published 2023).

Data set [1] has as its system respiratory syncytial virus. Particulars: reported by S. Matsuyama et al.; cited from earlier work.
A further data set has as its system SARS-CoV-2. Particulars: reported by S. Matsuyama et al., read-out: effective concentration to block SARS-CoV-2 replication (EC90); cited from earlier work.
Another data set deals with influenza virus. The following applies: reported by S. Matsuyama et al.; cited from earlier work.
The next data set deals with human coronavirus. Particulars: cultured cells; reported by S. Matsuyama et al.; cited from earlier work.

Take `CC(C)C(=O)OCC(=O)[C@@]12O[C@H](C3CCCCC3)O[C@@H]1C[C@H]1[C@@H]3CCC4=CC(=O)C=C[C@]4(C)[C@H]3[C@@H](O)C[C@@]12C` [ciclesonide, (11β, 16α)-16, 17-[[(R)-cyclohexylmethylene]bis(oxy)]-11-hydroxy-21-(2-methyl-1-oxopropoxy)-pregna-1,4-diene-3,20-dione]: the “suppression of replication of respiratory syncytial virus” value in data set [1] was “did not suppress”. Further, the EC90 with SARS-CoV-2 was 6.3 µM. The “suppression of replication of influenza virus” value with influenza virus was “did not suppress”. Also, the “suppression of human coronavirus replication” value with human coronavirus is “suppressed human coronavirus replication”.
